Assay results from patent US9766247B2, “Rapid method to analyze ubiquitin-proteasome activity and to screen for ubiquitin-proteasome inhibitor” (KOREA INSTITUTE OF SCIENCE AND TECHNOLOGY, priority 2014, dated 2017).
Residues, ends and D or L forms follow the SMILES beside them. *: point of attachment. Cbz = O=C(OCc1ccccc1)*

System: ubiquitin-proteasome
Assay: Quantification of GFP-RPN1 fusion protein accumulated by proteasome inhibitor (dual LIF CE system)
Format: cell-based, human
Conditions: HEK 293T cells transfected with EGFP-RPN1 and DsRed plasmid vectors; about 0 to about 20 μM inhibitor, two hours; GFP-RPN1 peak height by CE-dual LIF; FIGS. 5a to 5c
Description: To monitor a ubiquitin-proteasome-dependent protein RPN1 (ribophorin I), a plasmid vector enabling to express a fusion protein including a green fluorescent protein (GFP) and RPN1 was prepared. Specifically, to induce rapid lysis of a human RPN1 protein, a wild type RPN1 polynucleotide (SEQ ID NO: 2) encoding a wild type human RPN1 protein (SEQ ID NO: 1) was used to prepare a mutant RPN-I^N299T polynucleotide (SEQ ID NO: 4) encoding a mutant RPN-I^N299T protein (SEQ ID NO: 3). The mutant RPN-I^N299T polynucleotide (SEQ ID NO: 4) was cloned into a pEGFP-C1 plasmid vector (Clontech Laboratories Inc.) to prepare a pEGFP-RPN1^N299T plasmid which enables expression of a fusion protein including a GFP protein and the RPN1^N299T protein.
On the other hand, a plasmid vector expressing a red fluorescent protein (RFP) as a ubiquitin-proteasome-independent protein which is not lysed by a ubiquitin-proteasome was prepared. Specifically, a pDs-Red2-Express-N1 plasmid vector (Clontech Laboratories Inc.) which enables expression of a Discosoma species RFP (DsRed) was prepared.
As host cells, human embryonic kidney (HEK) 293T cells were cultured in a DMEM (Dulbecco's Modified Eagle's Medium) (Gibco/BRL) including 10% (v/v) fetal bovine serum (FBS) and 1% (v/v) penicillin-streptomycin (Gibco/BRL) at a temperature of 37° C. under the atmosphere of 5% CO2. During the culturing, the medium was replaced with new medium every second day. […]
Subsequently, the supernatant which was the cell lysate was obtained as described in Example 1.2. As described in Example 1.3, a capillary electrophoresis was performed with the obtained supernatant under the electrophoresis conditions of 100 mM Tris-CHES and 10 mM SDS (pH 9.0) by using a dual LIF CE system including an uncoated capillary having an inner diameter of 75 μm and a length of 50 cm to quantify the peak height. […]

Compound	amount of the accumulated proteins (relative intensity of the peaks)
CC(C)C[C@@H](C=O)NC(=O)[C@H](CC(C)C)NC(=O)[C@H](CC(C)C)NC(=O)OCc1ccccc1 [MG132] (Cbz-Leu-Leu-Leu-aldehyde)	varied according to the increase of the concentrations
CC(C)C[C@H](NC(=O)[C@H](Cc1ccccc1)NC(=O)c1cnccn1)B(O)O [bortezomib]	varied according to the increase of the concentrations
CC(C)C[C@H](NC(=O)[C@H](CCc1ccccc1)NC(=O)CN1CCOCC1)C(=O)N[C@@H](Cc1ccccc1)C(=O)N[C@@H](CC(C)C)C(=O)[C@@]1(C)CO1 [carfilzomib]	varied according to the increase of the concentrations
